Laboratory results from US8252939B2, “Sulfoximinamide compounds for combating animal pests” (BASF SE, priority 2008, dated 2012).

Assays:
Format in all cases: in vivo
aphis craccivora = assay: Cowpea aphid (aphis craccivora), sprayed potted cowpea plants; conditions: population reduction assessed after 24, 72, and 120 hours, read-out: mortality in comparison with untreated controls
Procedure: The active compound is dissolved at the desired concentration in a mixture of 1:1 (vol:vol) distilled water:acetone. The test solution is prepared at the day of use.
Potted cowpea plants colonized with approximately 100-150 aphids of various stages were sprayed after the pest population has been recorded. Population reduction was assessed after 24, 72, and 120 hours.

Megoura viciae = assay: Vetch aphid (Megoura viciae) contact or systemic, broad bean leaf disks; conditions: foliar, 120 h, after 5 days, read-out: mortality in comparison with untreated controls
Procedure: For evaluating control of vetch aphid (Megoura viciae) through contact or systemic means the test unit consisted of 24-well-microtiter plates containing broad bean leaf disks.
The compounds were formulated using a solution containing 75% v/v water and 25% v/v DMSO. Different concentrations of formulated compounds were sprayed onto the leaf disks at 2.5 μl, using a custom built micro atomizer, at two replications. After application, the leaf disks were air-dried and 5-8 adult aphids placed on the leaf disks inside the microtiter plate wells. The aphids were then allowed to suck on the treated leaf disks and incubated at about 23±1° C. and about 50±5% relative humidity for 5 days. Aphid mortality and fecundity was then visually assessed.

Myzus persicae [1] = assay: Green peach aphid (Myzus persicae) I, systemic, artificial diet under membrane; conditions: 72 h, after 3 days, read-out: mortality in comparison with untreated controls
Description: For evaluating control of green peach aphid (Myzus persicae) through systemic means the test unit consisted of 96-well-microtiter plates containing liquid artificial diet under an artificial membrane.
The compounds were formulated using a solution containing 75% v/v water and 25% v/v DMSO. Different concentrations of formulated compounds were pipetted into the aphid diet, using a custom built pipetter, at two replications.
After application, 5-8 adult aphids were placed on the artificial membrane inside the microtiter plate wells. The aphids were then allowed to suck on the treated aphid diet and incubated at about 23±1° C. and about 50±5% relative humidity for 3 days. Aphid mortality and fecundity was then visually assessed.

Myzus persicae [2] = assay: Green peach aphid (Myzus persicae) II, pepper plant leaf dip; conditions: foliar, 120 h, after 5 days, read-out: mortality in comparison with untreated controls
Description: The active compounds were formulated in 50:50 acetone:water (vol:vol) and 100 ppm Kinetica™ surfactant.
Pepper plants in the 2nd leaf-pair stage (variety ‘California Wonder’) were infested with approximately 40 laboratory-reared aphids by placing infested leaf sections on top of the test plants. The leaf sections were removed after 24 hr. The leaves of the intact plants were dipped into gradient solutions of the test compound and allowed to dry. Test plants were maintained under fluorescent light (24 hour photoperiod) at about 25° C. and about 20-40% relative humidity. Aphid mortality on the treated plants, relative to mortality on check plants, was determined after 5 days.

Nephotettix virescens = assay: Rice green leafhopper (Nephotettix virescens), sprayed rice seedlings; conditions: after 72 hours, read-out: mortality in comparison with untreated controls
Procedure: Rice seedlings were cleaned and washed 24 hours before spraying. The active compounds were formulated in 50:50 acetone:water (vol:vol), and 0.1% vol/vol surfactant (EL 620) was added. Potted rice seedlings were sprayed with 5 ml test solution, air dried, placed in cages and inoculated with 10 adults. Treated rice plants were kept at about 28-29° C. and relative humidity of about 50-60%. Percent mortality was recorded after 72 hours.

dichromothrips corbetti = assay: Orchid thrips (dichromothrips corbetti) floral-immersion; conditions: 96 h, after 4 days, read-out: mortality in comparison with untreated controls
Procedure: Dichromothrips corbetti adults used for bioassay were obtained from a colony maintained continuously under laboratory conditions. For testing purposes, the test compound was diluted to a concentration of 300 ppm (wt compound: vol diluent) in a 1:1 mixture of acetone:water (vol:vol), plus 0.01% vol/vol Kinetic® surfactant.
Thrips potency of each compound was evaluated by using a floral-immersion technique. Plastic petri dishes were used as test arenas. All petals of individual, intact orchid flowers were dipped into treatment solution and allowed to dry. Treated flowers were placed into individual petri dishes along with 10-15 adult thrips. The petri dishes were then covered with lids. All test arenas were held under continuous light and a temperature of about 28° C. for duration of the assay. After 4 days, the numbers of live thrips were counted on each flower, and along inner walls of each petri dish. The level of thrips mortality was extrapolated from pre-treatment thrips numbers.

Anthonomus grandis = assay: Boll weevil (Anthonomus grandis) egg and larval mortality, microtiter plate insect diet; conditions: 120 h, egg and larval mortality after 5 days, read-out: mortality in comparison with untreated controls
Procedure: For evaluating control of boll weevil (Anthonomus grandis) the test unit consisted of 24-well-microtiter plates containing an insect diet and 20-30 A. grandis eggs.
The compounds were formulated using a solution containing 75% v/v water and 25% v/v DMSO. Different concentrations of formulated compounds were sprayed onto the insect diet at 20 μl, using a custom built micro atomizer, at two replications. After application, microtiter plates were incubated at about 23±1° C. and about 50±5% relative humidity for 5 days. Egg and larval mortality was then visually assessed.

Aphis gossypii = assay: Cotton aphid (Aphis gossypii) I, cotton cotyledon dip; conditions: 120 h, after 5 days, read-out: mortality in comparison with untreated controls
Description: The active compounds were formulated in 50:50 (vol:vol) acetone:water and 100 ppm Kinetica™ surfactant.
Cotton plants at the cotyledon stage (one plant per pot) were infested by placing a heavily infested leaf from the main colony on top of each cotyledon. The aphids were allowed to transfer to the host plant overnight, and the leaf used to transfer the aphids was removed. The cotyledons were dipped in the test solution and allowed to dry. After 5 days, mortality counts were made.

N#CN=S1(=O)CCCN1Cc1ccc(Cl)nc1 (centres unmarked) [compound 1]
> 75%: mortality at 300 ppm (aphis craccivora) | mortality at 2500 ppm (Megoura viciae) | mortality at 300 ppm (Myzus persicae [1]) | mortality at 300 ppm (Myzus persicae [2]) | mortality at 300 ppm (Nephotettix virescens) | mortality at 300 ppm (dichromothrips corbetti) | mortality at 2500 ppm (Anthonomus grandis) | mortality at 300 ppm (Aphis gossypii)

N#CN=S1(=O)CCCN1c1cnc(Cl)c(Cl)c1 (centres unmarked) [compound 12]
> 75%: mortality at 300 ppm (aphis craccivora) | mortality at 2500 ppm (Megoura viciae) | mortality at 300 ppm (Myzus persicae [2]) | mortality at 300 ppm (Nephotettix virescens) | mortality at 300 ppm (Aphis gossypii)

CS(=O)(=NC#N)NCc1ccc(Cl)nc1 (centres unmarked) [compound 90]
> 75%: mortality at 300 ppm (aphis craccivora) | mortality at 2500 ppm (Megoura viciae) | mortality at 300 ppm (Myzus persicae [2]) | mortality at 300 ppm (Aphis gossypii)
